# Measured values: patent publication US9469615B2, “Quinoxalines and AZA-quinoxalines as CRTH2 receptor modulators” (Merck Sharp & Dohme Corp., priority 2010, dated 2016)
# Target: T1, hCRTH2 (Homo sapiens, UniProt Q9Y5Y4)
# T1 construct: expressed in transfected cells; host or cells: HEK (human embryonic kidney) cells expressing hCRTH2; membrane preparation
# T1 sequence (Q9Y5Y4 1-395): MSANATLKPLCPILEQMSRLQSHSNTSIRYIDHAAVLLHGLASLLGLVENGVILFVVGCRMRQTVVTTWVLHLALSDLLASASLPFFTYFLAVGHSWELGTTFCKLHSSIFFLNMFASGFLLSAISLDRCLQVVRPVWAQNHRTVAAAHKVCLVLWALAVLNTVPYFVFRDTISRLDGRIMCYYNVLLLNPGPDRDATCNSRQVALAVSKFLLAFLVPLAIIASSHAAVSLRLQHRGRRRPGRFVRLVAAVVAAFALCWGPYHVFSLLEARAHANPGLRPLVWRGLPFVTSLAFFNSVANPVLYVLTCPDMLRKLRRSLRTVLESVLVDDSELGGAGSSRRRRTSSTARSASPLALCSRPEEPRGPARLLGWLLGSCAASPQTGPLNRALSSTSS
# Test: Radioligand binding assay ([3H]PGD2 competition, HEK-hCRTH2 membranes)
# Conditions: [3H]PGD2 binding, values in text
# Procedure, shortened: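 Displacement of 3.0 nM [3H]PGD2 from human CRTH2 expressed in HEK membranes was measured at room temperature over 60 min. Unlabelled PGD2 at 10 μM gave non-specific binding.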
row,Ki [nM],SMILES
1,259,"Cc1cc2nc(-c3ccccc3)c(CCCCC(=O)O)nc2cc1C(=O)N[C@@H]1CCCc2ccccc21 [compound 526, (R)-5-(6-methyl-3-phenyl-7-((1,2,3,4-tetrahydronaphthalen-1-yl)carbamoyl)quinoxalin-2-yl)pentanoic acid]"

# Same assay, conditions: [3H]PGD2 competition, Table B
row,Ki [nM],SMILES
1,20.1 to 200,"O=C(O)CCCCc1nc2cc(C(=O)N[C@@H]3c4ccccc4C[C@H]3O)ccc2nc1-c1ccc(F)cc1 [compound 510, 5-(3-(4-fluorophenyl)-7-(((1R,2R)-2-hydroxy-2,3-dihydro-1H-inden-1-yl)carbamoyl)quinoxalin-2-yl)pentanoic acid]"
2,2.1 to 20,"O=C(O)CCCCc1nc2cc(C(=O)N[C@H]3c4ccccc4C[C@@H]3O)ccc2nc1-c1ccc(F)cc1 [compound 511, 5-(3-(4-fluorophenyl)-7-(((1S,2S)-2-hydroxy-2,3-dihydro-1H-inden-1-yl)carbamoyl)quinoxalin-2-yl)pentanoic acid]"
3,0.1 to 2,"O=C(O)CCCCc1nc2cc(C(=O)N[C@@H]3CCOc4ccccc43)ccc2nc1-c1ccccc1 [compound 512, (R)-5-(7-(chroman-4-ylcarbamoyl)-3-phenylquinoxalin-2-yl)pentanoic acid]"
4,0.1 to 2,"O=C(O)CCCCc1nc2cc(C(=O)N[C@H]3CCOc4ccccc43)ccc2nc1-c1ccccc1 [compound 513, (S)-5-(7-(chroman-4-ylcarbamoyl)-3-phenylquinoxalin-2-yl)pentanoic acid]"
5,2.1 to 20,"C[C@@H](CCCc1nc2cc(C(=O)N[C@@H]3CCCc4cc(F)ccc43)ccc2nc1-c1ccc(F)cc1)C(=O)O [compound 518, (S)-5-(7-(((R)-6-fluoro-1,2,3,4-tetrahydronaphthalen-1-yl)carbamoyl)-3-(4-fluorophenyl)quinoxalin-2-yl)-2-methylpentanoic acid]"
6,2.1 to 20,"C[C@@H](CCCc1nc2cc(C(=O)N[C@@H]3CCCc4cc(Cl)ccc43)ccc2nc1-c1ccc(F)cc1)C(=O)O [compound 519, (S)-5-(7-(((R)-6-chloro-1,2,3,4-tetrahydronaphthalen-1-yl)carbamoyl)-3-(4-fluorophenyl)quinoxalin-2-yl)-2-methylpentanoic acid]"
7,2.1 to 20,"C[C@@H](CCCc1nc2cc(C(=O)N[C@@H]3CCOc4ccccc43)ccc2nc1-c1ccc(F)cc1)C(=O)O [compound 520, (S)-5-(7-((R)-chroman-4-ylcarbamoyl)-3-(4-fluorophenyl)quinoxalin-2-yl)-2-methylpentanoic acid]"
8,20.1 to 200,"C[C@@H](CCCc1nc2cc(C(=O)N[C@@H]3CCCc4ncccc43)ccc2nc1-c1ccc(F)cc1)C(=O)O [compound 521, (S)-5-(3-(4-fluorophenyl)-7-(((R)-5,6,7,8-tetrahydroquinolin-5-yl)carbamoyl)quinoxalin-2-yl)-2-methylpentanoic acid]"
9,2.1 to 20,"C[C@@H](CCCc1nc2cc(C(=O)N[C@@H]3CCc4cc(Cl)ccc43)ccc2nc1-c1ccc(F)cc1)C(=O)O [compound 522, (S)-5-(7-(((R)-5-chloro-2,3-dihydro-1H-inden-1-yl)carbamoyl)-3-(4-fluorophenyl)quinoxalin-2-yl)-2-methylpentanoic acid]"
10,2.1 to 20,"C[C@@H](CCCc1nc2cc(C(=O)N[C@@H]3CCc4cc(F)ccc43)ccc2nc1-c1ccc(F)cc1)C(=O)O [compound 523, (S)-5-(7-(((R)-5-fluoro-2,3-dihydro-1H-inden-1-yl)carbamoyl)-3-(4-fluorophenyl)quinoxalin-2-yl)-2-methylpentanoic acid]"
11,2.1 to 20,"O=C(O)CCCCc1nc2cc(C(=O)N[C@@H]3CCOc4cc(F)ccc43)ccc2nc1-c1ccc(Cl)cc1 [compound 532, (R)-5-(3-(4-chlorophenyl)-7-((7-fluorochroman-4-yl)carbamoyl)quinoxalin-2-yl)pentanoic acid]"
12,2.1 to 20,"O=C(O)CCCCc1nc2cc(C(=O)N[C@@H]3CCOc4cc(F)c(F)cc43)ccc2nc1-c1ccc(Cl)cc1 [compound 533, (R)-5-(3-(4-chlorophenyl)-7-((6,7-difluorochroman-4-yl)carbamoyl)quinoxalin-2-yl)pentanoic acid]"
13,2.1 to 20,"O=C(O)CCCCc1nc2cc(C(=O)N[C@H]3CCOc4ccc(F)cc43)ccc2nc1-c1ccc(Cl)cc1 [compound 534, (S)-5-(3-(4-chlorophenyl)-7-((6-fluorochroman-4-yl)carbamoyl)quinoxalin-2-yl)pentanoic acid]"
14,2.1 to 20,"C[C@H](NC(=O)c1ccc2nc(-c3ccc(F)cc3)c(CCCCC(=O)O)nc2c1)c1ccc2ccccc2c1 [compound 535, (S)-5-(3-(4-fluorophenyl)-7-((1-(naphthalen-2-yl)ethyl)carbamoyl)quinoxalin-2-yl)pentanoic acid]"
15,2.1 to 20,"C[C@H](NC(=O)c1ccc2nc(-c3ccc(F)cc3)c(CCCCC(=O)O)nc2c1)c1cccc2ccccc12 [compound 536, (S)-5-(3-(4-fluorophenyl)-7-((1-(naphthalen-1-yl)ethyl)carbamoyl)quinoxalin-2-yl)pentanoic acid]"
16,2.1 to 20,"O=C(O)CCCCc1nc2cc(C(=O)N[C@@H]3CCOc4ccc(F)cc43)ccc2nc1-c1ccc(F)cc1 [compound 537, (R)-5-(7((6-fluorochroman-4-yl)carbamoyl)-3-(4-fluorophenyl)quinoxalin-2-yl)pentanoic acid]"
17,2.1 to 20,"O=C(O)CCCCc1nc2cc(C(=O)N[C@@H]3CCOc4cc(F)c(F)cc43)ccc2nc1-c1ccc(F)cc1 [compound 538, (R)-5-(7-((6,7-difluorochroman-4-yl)carbamoyl)-3-(4-fluorophenyl)quinoxalin-2-yl)pentanoic acid]"
18,2.1 to 20,"C[C@@H]1CN(c2ccc(Cl)cc2)CCN1C(=O)c1ccc2nc(-c3ccc(F)cc3)c(CCCCC(=O)O)nc2c1 [compound 540, (R)-5-(7-(4-(4-chlorophenyl)-2-methylpiperazine-1-carbonyl)-3-(4-fluorophenyl)quinoxalin-2-yl)pentanoic acid]"

# The next lines start with the molecule.
row,SMILES,Ki [nM]
1,"C[C@H]1CN(c2ccccc2)CCN1C(=O)c1ccc2nc(-c3ccc(Cl)cc3)c(CCCCC(=O)O)nc2c1 [compound 514, (S)-5-(3-(4-chlorophenyl)-7-(2-methyl-4-phenyl-piperazine-1-carbonyl)quinoxalin-2-yl)pentanoic acid]",2.1 to 20
2,"C[C@H]1CN(c2ccccc2)CCN1C(=O)c1ccc2nc(-c3ccc(F)cc3)c(CCCCC(=O)O)nc2c1 [compound 515, (S)-5-(3-(4-fluorophenyl)-7-(2-methyl-4-phenylpiperazine-1-carbonyl)quinoxalin-2-yl)pentanoic acid]",2.1 to 20
3,"C[C@H]1CN(c2ccc(F)cc2)CCN1C(=O)c1ccc2nc(-c3ccccc3)c(CCCCC(=O)O)nc2c1 [compound 516, (S)-5-(7-(4-(4-fluorophenyl)-2-methylpiperazine-1-carbonyl)-3-phenylquinoxalin-2-yl)pentanoic acid]",2.1 to 20
4,"C[C@@H](CCCc1nc2cc(C(=O)N[C@H](C)c3ccc(Cl)cc3)ccc2nc1-c1ccc(F)cc1)C(=O)O [compound 517, (S)-5-(7-(((R)-1-(4-chlorophenyl)ethyl)carbamoyl)-3-(4-fluorophenyl)quinoxalin-2-yl)-2-methyl-pentanoic acid]",2.1 to 20
5,"C[C@@H](CCCc1nc2cc(C(=O)N3CCN(c4ccccc4)CC3)ccc2nc1-c1ccc(F)cc1)C(=O)O [compound 524, (S)-5-(3-(4-fluorophenyl)-7-(4-phenylpiperazine-1-carbonyl)quinoxalin-2-yl)-2-methylpentanoic acid]",2.1 to 20
6,"Cc1nnc(CNC(=O)c2ccc3nc(-c4ccc(F)cc4)c(CCCCC(=O)O)nc3c2)o1 [compound 525, 5-(3-(4-fluorophenyl)-7-(((5-methyl-1,3,4-oxadiazol-2-yl)methyl)carbamoyl)quinoxalin-2-yl) pentanoic acid]",20.1 to 200
7,"Cc1cc2nc(-c3ccccc3)c(CCCCC(=O)O)nc2cc1C(=O)N[C@@H]1CCCc2ccccc21 [compound 526, (R)-5-(6-methyl-3-phenyl-7-((1,2,3,4-tetrahydronaphthalen-1-yl)carbamoyl)quinoxalin-2-yl)pentanoic acid]",201 to 700
8,"C[C@@H](NC(=O)c1ccc2nc(-c3ccc(F)cc3)c(CCCC(F)(F)C(=O)O)nc2c1)c1ccc(Cl)cc1 [compound 527, (R)-5-(7-((1-(4-chlorophenyl)ethyl)carbamoyl)-3-(4-fluorophenyl)quinoxalin-2-yl)-2,2-difluoropentanoic acid]",2.1 to 20
9,"O=C(N[C@H](c1ccc(F)cc1)C(F)(F)F)c1ccc2nc(-c3ccc(F)cc3)c(CCCC(F)(F)C(=O)O)nc2c1 [compound 528, (R)-2,2-difluoro-5-(3-(4-fluorophenyl)-7-((2,2,2-trifluoro-1-(4-fluorophenyl)ethyl)carbamoyl)quinoxalin-2-yl)pentanoic acid]",20.1 to 200
10,"CN(Cc1ccc(F)cc1)C(=O)c1ccc2nc(-c3ccc(F)cc3)c(CCCC(F)(F)C(=O)O)nc2c1 [compound 529, 2,2-difluoro-5-(7-((4-fluorobenzyl)(methyl)carbamoyl)-3-(4-fluorophenyl)quinoxalin-2-yl)pentanoic acid]",20.1 to 200
11,O=C(c1ccc2nc(-c3ccc(F)cc3)c(CCCC(F)(F)C(=O)O)nc2c1)N1CCN(c2ccccc2)CC1 [compound 530],20.1 to 200
12,"O=C(c1ccc2nc(-c3ccc(F)cc3)c(CCCC(F)(F)C(=O)O)nc2c1)N1CCC(c2ccccc2)CC1 [compound 531, 2,2-difluoro-5-(3-(4-fluorophenyl)-7-(4-phenylpiperidine-1-carbonyl)quinoxalin-2-yl)pentanoic acid]",2.1 to 20
13,"C[C@@H]1CN(c2ccc(Cl)cc2)CCN1C(=O)c1ccc2nc(-c3ccc(Cl)cc3)c(CCCCC(=O)O)nc2c1 [compound 539, (R)-5-(3-(4-chlorophenyl)-7-(4-(4-chlorophenyl)-2-methylpiperazine-1-carbonyl)quinoxalin-2-yl)pentanoic acid]",2.1 to 20
